Assays:
Mahlavu cells [1] = assay: cells; details: Homo sapiens, 48 h; for IC50: read-out: IC50 for Mahlavu cells; for viability at 100 µM: read-out: percentage of viable Mahlavu cells (cell viability)
Procedure: (§1) The cytotoxic activities of the newly synthesized amido-substituted triazolopyrrolo [2,1-c][1,4]benzodiazepines PBDT-7a–k were tested against Mahlavu and MRC-5 cells. After incubation of the cells with the compounds at concentrations of 3.12, 6.25, 12.50, 25.0, 50.0 and 100 µM for 48 h, the cell growth and viability were assessed by using CCK-8 assay.
(§2) Human hepatocellular carcinoma (Mahlavu) epithelial cells were used for cell culture experiments. Cells were cultured with 90% Dulbecco’s modified Eagle’s medium with 10% fetal bovine serum, 100 U/mL penicillin, and 100 μg/mL streptomycin. The cells were placed in an incubator to maintain high humidity, a temperature of 37 °C, and 5% CO2 for cell culture experiments. Cells were routinely sub-passaged in a 1:4 to 1:6 split using 0.25% trypsin.
(§3) The cell viability was determined using a CCK-8 assay following the manufacturer’s instructions. Mahlavu cells and MRC-5 cells were seeded in 96-well plates and allowed to attach overnight at 37 °C. Cells were treated with PBDT-7a–k in 0.1% FBS MEM or DMEM (100 μL/well), and the cells were incubated for 48 h in a humidified atmosphere. After the incubation period, 10 μL of cell Counting Kit-8 solution was added to the medium, and the cells were incubated for an additional 1–4 h in the incubator. The absorbance at 450 nm was then measured using a microplate reader. The IR was calculated using the following equation: IR = [1 − (A value for the treated samples − A value for the blank samples)/(A value for the control samples − A value for the blank samples)] × 100%. The assays were performed in triplicate and repeated at least twice.
(§4) Mahlavu cells were treated with PBDT-7 series compounds for 48 h, and survival was assessed using a CCK-8 assay (mean ± SEM, n = 6).

MRC-5 cells = assay: CCK-8 cytotoxicity assay, MRC-5 cells; details: 48 h
Procedure: (§5) After incubation of the cells with the compounds at concentrations of 3.12, 6.25, 12.50, 25.0, 50.0 and 100 µM for 48 h, the cell growth and viability were assessed by using CCK-8 assay.
(§6) Human fibroblast cells (MRC-5) cells were used for cell culture experiments. Cells were cultured with 90% Eagle’s minimum essential medium with 2 mM L-glutamine and Earle’s BSS adjusted to contain 1.5 g/L sodium bicarbonate, 0.1 mM non-essential amino acids, 1.0 mM sodium pyruvate with 10% fetal bovine serum, 100 U/mL penicillin, and 100 μg/mL streptomycin. The cells were placed in an incubator to maintain high humidity, 37 °C, and 5% CO2 for the cell culture experiments. Cells were routinely sub-passaged in a 1:2 to 1:5 split using 0.25% trypsin.
(§7) The cell viability was determined using a CCK-8 assay following the manufacturer’s instructions. Mahlavu cells and MRC-5 cells were seeded in 96-well plates and allowed to attach overnight at 37 °C. […] After the incubation period, 10 μL of cell Counting Kit-8 solution was added to the medium, and the cells were incubated for an additional 1–4 h in the incubator. The absorbance at 450 nm was then measured using a microplate reader. The IR was calculated using the following equation: IR = [1 − (A value for the treated samples − A value for the blank samples)/(A value for the control samples − A value for the blank samples)] × 100%. The assays were performed in triplicate and repeated at least twice.

Mahlavu cells [2] = details: 48 h, CCK-8; for effect on viability of Mahlavu cells, in words: 100 µM
Procedure: as §1, §2, §3, §4

in vitro = details: human
Procedure: as §5, §6, §7

For O=C(Nc1nnc2n1-c1ccccc1C(=O)N1CCC[C@@H]21)c1cccc(C(F)(F)F)c1 [PBDT-7i, N-((13aS)-9-Oxo-11,12,13,13a-tetrahydro-9H-benzo[e]pyrrolo[1,2-a][1,2,4]triazolo[3,4-c][1,4]diazepin-3-yl)-3-(trifluoromethyl)benzamide], the IC50 (Mahlavu cells [1]) was 50 µM, the viability at 100 µM (Mahlavu cells [1]) was 2% and the “toxicity to MRC-5 (normal) cells, in words” value (MRC-5 cells) was “low-toxic”. The “inhibition of Mahlavu cells, in words” value (Mahlavu cells [2]) was “selectively inhibit the growth”.
Work on COc1cccc(C(=O)Nc2nnc3n2-c2ccccc2C(=O)N2CCC[C@@H]32)c1 [PBDT-7f, 3-Methoxy-N-((13aS)-9-oxo-11,12,13,13a-tetrahydro-9H-benzo[e]pyrrolo[1,2-a][1,2,4]triazolo[3,4-c][1,4]diazepin-3-yl)benzamide] yielded a viability at 100 µM (Mahlavu cells [1]) of 37% and a melting point of 168 to 170 °C.
With O=C(Nc1nnc2n1-c1ccccc1C(=O)N1CCC[C@@H]21)c1ccccc1F [PBDT-7c, 2-Fluoro-N-((13aS)-9-oxo-11,12,13,13a-tetrahydro-9H-benzo[e]pyrrolo[1,2-a][1,2,4]triazolo[3,4-c][1,4]diazepin-3-yl)benzamide] the “effect on viability of Mahlavu cells, in words” value (Mahlavu cells [2]) was “little effect”.
With O=C(Nc1nnc2n1-c1ccccc1C(=O)N1CCC[C@@H]21)c1cccc(Cl)c1 [PBDT-7h, 3-Chloro-N-((13aS)-9-oxo-11,12,13,13a-tetrahydro-9H-benzo[e]pyrrolo[1,2-a][1,2,4]triazolo[3,4-c][1,4]diazepin-3-yl)benzamide] the “toxicity to MRC-5 (normal) cells, in words” value (MRC-5 cells) was “highly toxic”, the “survival rate of Mahlavu cells” value (Mahlavu cells [2]; 50 µM) was “below 50%” and the “inhibition of Mahlavu cells, in words” value (Mahlavu cells [2]) was “potent inhibitor”.
For O=C(Nc1nnc2n1-c1ccccc1C(=O)N1CCC[C@@H]21)c1ccc(F)cc1 [PBDT-7e, 4-Fluoro-N-((13aS)-9-oxo-11,12,13,13a-tetrahydro-9H-benzo[e]pyrrolo[1,2-a][1,2,4]triazolo[3,4-c][1,4]diazepin-3-yl)benzamide], the “effect on viability of Mahlavu cells, in words” value (Mahlavu cells [2]) was “little effect”.
In the case of O=C(Nc1nnc2n1-c1ccccc1C(=O)N1CCC[C@@H]21)c1cccs1 [PBDT-7k, N-((13aS)-9-Oxo-11,12,13,13a-tetrahydro-9H-benzo[e]pyrrolo[1,2-a][1,2,4]triazolo[3,4-c][1,4]diazepin-3-yl)thiophene-2-carboxamide], the viability at 100 µM (Mahlavu cells [1]) is reported as > 75%, the viability at 48 h, 100 µM (in vitro) is reported as > 75% and the melting point is reported as 185 to 186 °C.
With CC(C)(C)C(=O)Nc1nnc2n1-c1ccccc1C(=O)N1CCC[C@@H]21 [PBDT-7a, ((13aS)-9-Oxo-11,12,13,13a-tetrahydro-9H-benzo[e]pyrrolo[1,2-a][1,2,4]triazolo[3,4-c][1,4]diazepin-3-yl)pivalamide] the viability at 100 µM (Mahlavu cells [1]) was > 75%, the viability at 48 h, 100 µM (in vitro) was > 75% and the melting point was 213 to 215 °C.
With O=C(Nc1nnc2n1-c1ccccc1C(=O)N1CCC[C@@H]21)c1cccnc1 [PBDT-7j, N-((13aS)-9-Oxo-11,12,13,13a-tetrahydro-9H-benzo[e]pyrrolo[1,2-a][1,2,4]triazolo[3,4-c][1,4]diazepin-3-yl)nicotinamide] the viability at 100 µM (Mahlavu cells [1]) was > 75%, the viability at 48 h, 100 µM (in vitro) was > 75% and the melting point was 225 °C.
For N#Cc1cccc(C(=O)Nc2nnc3n2-c2ccccc2C(=O)N2CCC[C@@H]32)c1 [PBDT-7g, 3-Cyano-N-((13aS)-9-oxo-11,12,13,13a-tetrahydro-9H-benzo[e]pyrrolo[1,2-a][1,2,4]triazolo[3,4-c] [1,4]diazepin-3-yl)benzamide], the IC50 (Mahlavu cells [1]) was 50 µM, the viability at 100 µM (Mahlavu cells [1]) was 36% and the melting point was 245 to 246 °C.
For O=C(Nc1nnc2n1-c1ccccc1C(=O)N1CCC[C@@H]21)c1ccccc1 [PBDT-7b, N-((13aS)-9-Oxo-11,12,13,13a-tetrahydro-9H-benzo[e]pyrrolo[1,2-a][1,2,4]triazolo[3,4-c][1,4]diazepin-3-yl)benzamide], the viability at 100 µM (Mahlavu cells [1]) was > 75%, the viability at 48 h, 100 µM (in vitro) was > 75% and the melting point was 173 to 175 °C.
For O=C(Nc1nnc2n1-c1ccccc1C(=O)N1CCC[C@@H]21)c1cccc(F)c1 [PBDT-7d, 3-Fluoro-N-((13aS)-9-oxo-11,12,13,13a-tetrahydro-9H-benzo[e]pyrrolo[1,2-a][1,2,4]triazolo[3,4-c][1,4]diazepin-3-yl)benzamide], the viability at 100 µM (Mahlavu cells [1]) was ~61% and the melting point was 159 to 160 °C.

Source: publication PMC6269039, “Synthesis and Cytotoxicity Testing of New Amido-Substituted Triazolopyrrolo[2,1-c][1,4]benzodiazepine (PBDT) Derivatives” (Molecules, 2012)
